Results: US10300144B2, “N-terminal polysialylation” (Lipoxen Technologies Limited, priority 2006, dated 2019)

What was measured:
blood glucose = assay: In vivo efficacy of insulin formulations (blood glucose after subcutaneous injection); design: species or system mice; settings: for T-Test probability level of the difference against the Tris buffer, in vivo efficiency: mice
Protocol: The in vivo efficacy of insulin formulations was studied in female mice CD-1, 7-8 weeks old, 0.3 IU of protein dose (same activity) was injected in mice subcutaneously. Animals were divided into seven groups of four. insulin formulations were given to each animal of each group in the following manner; insulin (0.3 IU/mouse), Lantus (Aventis) insulin-PSA conjugate (14 KDa), PBS, one drop of blood was taken from each animal and was measured blood glucose by ACCU-CHEK Active (Roche Diagnostics).

[1] = Isoelectric focusing (IEF) gel; format: physicochemical; settings: IEF gel pH 3-10
Protocol: Novex® IEF gel was used to determine differences in insulin and CAO-insulin conjugate isoelectric points. Samples was dissolved to a concentration of 0.5 mg/ml. 5 ul sample was diluted with 5 ul Novex IEF Sample Buffer pH 3-10 and then loaded the protein sample on the gel.

liver enzymes = settings: cited from earlier work
[2] = cyanuric chloride activated PEG (2000 Da) conjugates; cited from earlier work
blood sugar levels = settings: rabbits, calculated on a molar basis; cited from earlier work
[3] = Colominic acid (CAO) stability at different pH; format: physicochemical
Protocol: Colominic acid samples (CA and CAO) were dissolved in NaNO3 (0.2M), CH3CN (10%; 5 mg/ml) and were chromatographed on over 2× GMPWXL columns with detection by refractive index (GPC system: VE1121 GPC solvent pump, VE3580 RI detector and collation with Trisec 3 software (Viscotek Europe Ltd). Samples (5 mg/ml) were filtered over 0.45 μm nylon membrane and run at […] with 0.2M NaNO3 and CH3CN (10%) as the mobile phase.
The rules for chemistry of the PEGylation cannot be applied to polysialylation as such because of the difference in the physiochemical properties of these molecules. PSA is an acid labile polymer and is stable for weeks around neutral pH (FIG. 3). […] Polysialic acid is highly hydrophilic whereas PEG is an ampiphilic molecule in nature. When the polysialylation is carried out using conditions used for PEGylation, aggregation and precipitation of the proteins is seen in many cases.

## 13 kDa CAO-insulin: N-terminal conjugate of insulin with 13 kDa oxidised colominic acid (polysialic acid)
Blood glucose; time 32.0 minutes
  T-Test probability level of the difference against the Tris buffer, in vivo efficiency: ** (** P < 0.01)
Blood glucose; time 64.5 minutes
  T-Test probability level of the difference against the Tris buffer, in vivo efficiency: *** (*** P < 0.001)
Blood glucose; time 99.4 minutes
  T-Test probability level of the difference against the Tris buffer, in vivo efficiency: *** (*** P < 0.001)
[1]
  isoelectric point (pI): no fixed isoelectric point

## 15 KDa CAO-insulin (Sigma): conjugate of insulin with 15 kDa oxidised colominic acid
Blood glucose; conjugation pH 6.0 versus 7.4
  pH effect (of polysialylation) on in vivo efficiency: pH 6.0 is better than 7.4
Blood glucose; time 30 (unit not given)
  probability level of the difference against the PBS buffer: ** (**P < 0.01)
Blood glucose; time 60 (unit not given)
  probability level of the difference against the PBS buffer: *** (***P < 0.001)
Blood glucose; time 90 (unit not given)
  probability level of the difference against the PBS buffer: *** (***P < 0.001)
Blood glucose; time 120 (unit not given)
  probability level of the difference against the PBS buffer: ** (**P < 0.01)
Blood glucose; time 150 (unit not given)
  probability level of the difference against the PBS buffer: * (*P < 0.05)

## 21 kDa CAO-insulin: conjugate of insulin with 21 kDa oxidised colominic acid
Blood glucose; time 64.5 minutes
  T-Test probability level of the difference against the Tris buffer, in vivo efficiency: *** (*** P < 0.001)
Blood glucose; time 99.4 minutes
  T-Test probability level of the difference against the Tris buffer, in vivo efficiency: *** (*** P < 0.001)
Blood glucose; time 230.2 minutes
  T-Test probability level of the difference against the Tris buffer, in vivo efficiency: * (* P < 0.05)

## 21.5 kd CAO-insulin: conjugate of insulin with 21.5 kDa oxidised colominic acid (FIG. 9)
Blood glucose; among conjugates of FIG. 9 (10, 15, 21.5 kDa), PBS control
  effect on decreasing blood glucose in mice: most significant effect on the decreasing blood glucose in mice

## 27 kDa CAO-insulin: conjugate of insulin with 27 kDa oxidised colominic acid
Blood glucose; time 32.0 minutes
  T-Test probability level of the difference against the Tris buffer, in vivo efficiency: ** (** P < 0.01)
Blood glucose; time 64.5 minutes
  T-Test probability level of the difference against the Tris buffer, in vivo efficiency: *** (*** P < 0.001)
Blood glucose; time 99.4 minutes
  T-Test probability level of the difference against the Tris buffer, in vivo efficiency: ** (** P < 0.01)
Blood glucose; time 230.2 minutes
  T-Test probability level of the difference against the Tris buffer, in vivo efficiency: ** (** P < 0.01)
Blood glucose; time 1354.9 minutes
  T-Test probability level of the difference against the Tris buffer, in vivo efficiency: ** (** P < 0.01)
[1]
  isoelectric point (pI): no fixed isoelectric point

## 32 kDa CAO-insulin: conjugate of insulin with 32 kDa oxidised colominic acid
Blood glucose; time 32.0 minutes
  T-Test probability level of the difference against the Tris buffer, in vivo efficiency: *** (*** P < 0.001)
Blood glucose; time 64.5 minutes
  T-Test probability level of the difference against the Tris buffer, in vivo efficiency: *** (*** P < 0.001)
Blood glucose; time 99.4 minutes
  T-Test probability level of the difference against the Tris buffer, in vivo efficiency: *** (*** P < 0.001)
Blood glucose; time 1354.9 minutes
  T-Test probability level of the difference against the Tris buffer, in vivo efficiency: * (* P < 0.05)

## PEG(1500)-B1-insulin: Geiger et al./Ehrat et al. PEG-insulin adduct modified at residue PheB1
Liver enzymes
  stability to liver enzymes versus native insulin: far more stable

## PEG-insulin conjugates: Davis et al. conjugates of insulin with cyanuric chloride activated PEG (2000 Da)
[2]
  activity (partially active): about 50%

## insulin [reference compound]
Blood glucose; time 32.0 minutes
  T-Test probability level of the difference against the Tris buffer, in vivo efficiency: *** (*** P < 0.001)
Blood glucose; time 64.5 minutes
  T-Test probability level of the difference against the Tris buffer, in vivo efficiency: *** (*** P < 0.001)
Blood glucose; time 99.4 minutes
  T-Test probability level of the difference against the Tris buffer, in vivo efficiency: *** (*** P < 0.001)

## mPEG(1500)-B1-insulin: Obermeier et al. site-specific PEG-insulin conjugate modified at residue PheB1
Blood sugar levels
  insulin effect on reduction of blood sugar levels: 100%

## oxidised colominic acid [CAO]
[3]; pH 4.0, after 48 hours
  slow degradation, % of initial MW: 70 % of initial MW
[3]; pH 5.0, after 48 hours
  slow degradation, % of initial MW: 92 % of initial MW
[3]; pH 6.0
  stability of CAO: stable for 8 days
[3]; pH 7.4
  stability of CAO: stable for 8 days
